{"source": "patent US7763463B2", "about": "“Use of cyclic AMP and ascorbic acid to produce dopaminergic neurons from embryonic stem cells” (Geron Corporation, priority 2000, dated 2010)", "format_in_all_cases": "cell-based, human", "key": {"[1]": {"tested_on": "hES cell derived neurons", "experiment": "Fura-2 imaging of calcium flux", "settings": "of the 53 cells tested; cells responding to GABA, acetylcholine, ATP and elevated potassium; 0.5 mM neurotransmitter, ATP 10 μM", "method": "Standard fura-2 imaging of calcium flux was used to investigate the functional properties of the hES cell derived neurons. Neurotransmitters studied included GABA, glutamate (E), glycine (G), elevated potassium (50 mM K^+ instead of 5 mM K^+), ascorbic acid (control), dopamine, acetylcholine (ACh) and norepinephrine. The solutions contained 0.5 mM of the neurotransmitter (except ATP at 10 μM) in rat Ringers (RR) solution: 140 mM NaCl, 3 mM KCl, 1 mM MgCl2, 2 mM CaCl2, 10 mM HEPES buffer, and 10 mM glucose. External solutions were set to pH 7.4 using NaOH. Cells were perfused in the recording chamber at 1.2-1.8 mL/min, and solutions were applied by bath application using a 0.2 mL loop injector located ˜0.2 mL upstream of the bath import. Transient rises in calcium were considered to be a response if the calcium levels rose above 10% of the baseline value within 60 sec of application, and returned to baseline within 1-2 min."}, "[2]": {"tested_on": "embryoid bodies from hES cells", "experiment": "Embryoid bodies with or without retinoic acid, then NT-3/BDNF; MAP-2 staining", "settings": "embryoid bodies maintained in 10 μM RA 4 days; then mitogens, then 10 ng/mL NT-3 and BDNF; without RA ~5%", "method": "To generate terminally differentiated neurons, the first stage of differentiation was induced by forming embryoid bodies in FBS medium with or without 10 μM retinoic acid (RA). After 4 days in suspension, embryoid bodies were plated onto fibronectin-coated plates in defined medium supplemented with 10 ng/mL human EGF, 10 ng/mL human bFGF, 1 ng/mL human PDGF-AA, and 1 ng/mL human IGF-1. The embryoid bodies adhered to the plates, and cells began to migrate onto the plastic, forming a monolayer.\nThe cell populations were further differentiated by replating the cells in a medium containing none of the mitogens, but containing 10 ng/mL Neurotrophin-3 (NT-3) and 10 ng/mL brain-derived neurotrophic factor (BDNF). Neurons with extensive processes were seen after about 7 days. […] GaIC positive cells were identified, but the cells were large and flat rather than having complex processes."}, "[3]": {"tested_on": "hES cells of the H7 line", "experiment": "Direct differentiation: noggin, follistatin and retinoic acid (FIG. 6)", "settings": "15 days with Treatment D, cAMP 700 μg; antagonists used for varying time periods", "description": "Noggin is apparently important at about the 1 week point (days 5 to 8), while follistatin is important at around the 2 week point (days 13 to 15), maximizing production of mature neurons rather than small neurites.\nVirtually no β-tubulin positive neurons were formed in the absence of noggin or follistatin. […] It is hypothesized that initial noggin/follistatin induction generates a neural progenitor cell, which subsequently can be induced to form neurons by the addition of other factors.\nCells were differentiated according to treatment F as previously (left 2 bars) or omitting retinoic acid (right 2 bars)."}, "[4]": {"tested_on": "hES cells", "experiment": "Effect of neurotrophins on direct differentiation, β-tubulin positive cell count", "settings": "7 days of differentiation; BDNF 10 ng/mL, neurotrophin-3 1 ng/mL", "method": "The effect of several members of the neurotrophin growth factor family was examined. hES cells were differentiated by harvesting with collagenase, dissociating, and reseeding onto poly-ornithine coated cover slips. The cells were plated into DMEM/F12+N2+10% FBS overnight. The following day, the serum was removed from the medium and replaced with 10 ng/mL human bFGF and the growth factor being tested. After 24 hours, bFGF was removed from the medium. These cultures were fed every other day. They were fixed after 7 days of differentiation and immunostained for analysis. The number of neurons was evaluated by counting cells positive for β-tubulin. Cultures maintained in the presence of 10 ng/mL brain derived neurotrophic factor (BDNF) formed approximately 3-fold more neurons than the control cultures. Cultures maintained in neurotrophin-3 (1 ng/mL) formed approximately 2-fold more neurons than control cultures."}}, "data": [{"molecule": "Nc1ncnc2c1ncn2[C@@H]1O[C@H](COP(=O)(O)OP(=O)(O)OP(=O)(O)O)[C@@H](O)[C@H]1O", "note": "[ATP]", "values": [{"measurement": "cells that responded (calcium rise)", "setting": "[1]", "value": 26}]}, {"molecule": "NCCCC(=O)O", "note": "[GABA, γ-amino butyric acid]", "values": [{"measurement": "cells that responded (calcium rise)", "setting": "[1]", "value": 26}]}, {"molecule": "CC(=O)OCC[N+](C)(C)C", "note": "[acetylcholine]", "values": [{"measurement": "cells that responded (calcium rise)", "setting": "[1]", "value": 26}]}, {"molecule": "CC1=C(/C=C/C(C)=C/C=C/C(C)=C/C(=O)O)C(C)(C)CCC1", "note": "[retinoic acid]", "values": [{"measurement": "MAP-2 positive cells", "setting": "[2]", "value": "~26", "unit": "%"}]}, {"molecule": "follistatin: TGF-β superfamily antagonist (protein, UniProt P19883 30-344, looked up) Follistatin: GNCWLRQAKNGRCQVLYKTELSKEECCSTGRLSTSWTEEDVNDNTLFKWMIFNGGAPNCIPCKETCENVDCGPGKKCRMNKKNKPRCVCAPDCSNITWKGPVCGLDGKTYRNECALLKARCKEQPELEVQYQGRCKKTCRDVFCPGSSTCVVDQTNNAYCVTCNRICPEPASSEQYLCGNDGVTYSSACHLRKATCLLGRSIGLAYEGKCIKAKSCEDIQCTGGKKCLWDFKVGRGRCSLCDELCPDSKSDEPVCASDNATYASECAMKEAACSSGVLLEVKHSGSCNSISEDTEEEEEDEDQDYSFPISSILEW", "values": [{"measurement": "contribution to neuron differentiation", "setting": "[3]", "value": "contribute to neuron differentiation, and work synergistically"}]}, {"molecule": "neurotrophin-3: member of the neurotrophin growth factor family (protein, UniProt P20783 139-257, looked up) Neurotrophin-3: YAEHKSHRGEYSVCDSESLWVTDKSSAIDIRGHQVTVLGEIKTGNSPVKQYFYETRCKEARPVKNGCRGIDDKHWNSQCKTSQTYVRALTSENNKLVGWRWIRIDTSCVCALSRKIGRT", "values": [{"measurement": "neurons formed (β-tubulin positive cells) relative to control cultures", "setting": "[4]", "value": "approximately 2 fold"}]}, {"molecule": "BDNF: brain derived neurotrophic factor, member of the neurotrophin growth factor family (protein, UniProt P23560 19-247, looked up) Neurotrophic factor BDNF …: APMKEANIRGQGGLAYPGVRTHGTLESVNGPKAGSRGLTSLADTFEHVIEELLDEDQKVRPNEENNKDADLYTSRVMLSSQVPLEPPLLFLLEEYKNYLDAANMSMRVRRHSDPARRGELSVCDSISEWVTAADKKTAVDMSGGTVTVLEKVPVSKGQLKQYFYETKCNPMGYTKEGCRGIDKRHWNSQCRTTQSYVRALTMDSKKRIGWRFIRIDTSCVCTLTIKRGR", "values": [{"measurement": "neurons formed (β-tubulin positive cells) relative to control cultures", "setting": "[4]", "value": "approximately 3 fold"}]}, {"molecule": "noggin: TGF-β superfamily antagonist (protein, UniProt Q13253 28-232, looked up) Noggin: QHYLHIRPAPSDNLPLVDLIEHPDPIFDPKEKDLNETLLRSLLGGHYDPGFMATSPPEDRPGGGGGAAGGAEDLAELDQLLRQRPSGAMPSEIKGLEFSEGLAQGKKQRLSKKLRRKLQMWLWSQTFCPVLYAWNDLGSRFWPRYVKVGSCFSKRSCSVPEGMVCKPSKSVHLTVLRWRCQRRGGQRCGWIPIQYPIISECKCSC", "values": [{"measurement": "contribution to neuron differentiation", "setting": "[3]", "value": "contribute to neuron differentiation, and work synergistically"}]}]}
